{
  "source": "PubChem BioAssay AID248",
  "about": "(DTP/NCI, 2004)",
  "tested_on": "L1210 leukemia ip in BDF1 mice, survival T/C",
  "assay": "NCI In Vivo Anticancer Drug Screen. Data for tumor model L1210 Leukemia (intraperitoneal) in B6D2F1 (BDF1) mice",
  "conditions": "endpoint: mean survival time, higher = longer survival",
  "procedure,_shortened": "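Mice bearing the transplanted tumor received compound or vehicle. Survival of the treated group was divided by that of the vehicle-treated control group to give the ratio.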",
  "note": "Values joined by “and” are separate entries in the source; they are usually repeats but may differ in a detail not shown here. Equal entries are not always repeated. Inconclusive results and toxic doses are left out.",
  "data": [
    {"smiles": "CC1Oc2ccccc2NC1=O", "note": "(configuration not stated)", "values": [
      {"measurement": "T/C", "setting": "dose: 100.0 mg/kg/injection, schedule: Q04DX002 (ip), vehicle: saline with Tween-80", "result": "102 % of control"},
      {"measurement": "T/C", "setting": "dose: 200.0 mg/kg/injection, schedule: Q04DX002 (ip), vehicle: saline with Tween-80", "result": "106 % of control"},
      {"measurement": "T/C", "setting": "dose: 400.0 mg/kg/injection, schedule: Q04DX002 (ip), vehicle: saline with Tween-80", "result": "98 % of control"}
    ]},
    {"smiles": "CC(=O)/C=C\\c1ccc(Cl)cc1", "values": [
      {"measurement": "T/C", "setting": "dose: 100.0 mg/kg/injection, schedule: Q01DX001 (ip), vehicle: saline", "result": "106 % of control"},
      {"measurement": "T/C", "setting": "dose: 200.0 mg/kg/injection, schedule: Q01DX001 (ip), vehicle: saline", "result": "98 % of control"},
      {"measurement": "T/C", "setting": "dose: 400.0 mg/kg/injection, schedule: Q01DX001 (ip), vehicle: saline", "result": "106 % of control"}
    ]},
    {"smiles": "CN=C(NC)Nc1ccc(NC(=O)c2ccc(C(=O)Nc3ccc(NC(=NC)NC)cc3)cc2)cc1", "values": [
      {"measurement": "T/C", "setting": "dose: 0.8 mg/kg/injection, schedule: Q01DX Z (ip), vehicle: carboxymethylcellulose (CMC)", "result": "97 % of control"},
      {"measurement": "T/C", "setting": "dose: 1.62 mg/kg/injection, schedule: Q01DX Z (ip), vehicle: carboxymethylcellulose (CMC)", "result": "123 % of control"},
      {"measurement": "T/C", "setting": "dose: 1.76 mg/kg/injection, schedule: Q01DX Z (oral), vehicle: carboxymethylcellulose (CMC)", "result": "115 % of control"},
      {"measurement": "T/C", "setting": "dose: 2.68 mg/kg/injection, schedule: Q01DX Z (oral), vehicle: carboxymethylcellulose (CMC)", "result": "109 % of control"},
      {"measurement": "T/C", "setting": "dose: 3.25 mg/kg/injection, schedule: Q01DX Z (ip), vehicle: carboxymethylcellulose (CMC)", "result": "238 % of control"},
      {"measurement": "T/C", "setting": "dose: 4.0 mg/kg/injection, schedule: Q01DX Z (oral), vehicle: carboxymethylcellulose (CMC)", "result": "117 % of control"},
      {"measurement": "T/C", "setting": "dose: 6.0 mg/kg/injection, schedule: Q01DX Z (oral), vehicle: carboxymethylcellulose (CMC)", "result": "108 % of control"},
      {"measurement": "T/C", "setting": "dose: 6.5 mg/kg/injection, schedule: Q01DX Z (ip), vehicle: carboxymethylcellulose (CMC)", "result": "173 % of control and 200 % of control"},
      {"measurement": "T/C", "setting": "dose: 8.0 mg/kg/injection, schedule: Q01DX001 (ip), vehicle: carboxymethylcellulose (CMC)", "result": "113 % of control"},
      {"measurement": "T/C", "setting": "dose: 8.0 mg/kg/injection, schedule: Q01DX001 (ip), vehicle: other", "result": "107 % of control"},
      {"measurement": "T/C", "setting": "dose: 11.0 mg/kg/injection, schedule: Q01DX001 (ip), vehicle: carboxymethylcellulose (CMC)", "result": "122 % of control"},
      {"measurement": "T/C", "setting": "dose: 11.0 mg/kg/injection, schedule: Q01DX001 (ip), vehicle: other", "result": "110 % of control"},
      {"measurement": "T/C", "setting": "dose: 25.0 mg/kg/injection, schedule: Q01DX Z (oral), vehicle: carboxymethylcellulose (CMC)", "result": "103 % of control"},
      {"measurement": "T/C", "setting": "dose: 26.0 mg/kg/injection, schedule: Q01DX Z (ip), vehicle: carboxymethylcellulose (CMC)", "result": "104 % of control"},
      {"measurement": "T/C", "setting": "dose: 39.0 mg/kg/injection, schedule: Q01DX001 (ip), vehicle: other", "result": "155 % of control"},
      {"measurement": "T/C", "setting": "dose: 40.0 mg/kg/injection, schedule: Q01DX001 (ip), vehicle: carboxymethylcellulose (CMC)", "result": "152 % of control"},
      {"measurement": "T/C", "setting": "dose: 40.0 mg/kg/injection, schedule: Q01DX001 (ip), vehicle: other", "result": "153 % of control"},
      {"measurement": "T/C", "setting": "dose: 50.0 mg/kg/injection, schedule: Q01DX Z (oral), vehicle: carboxymethylcellulose (CMC)", "result": "105 % of control"},
      {"measurement": "T/C", "setting": "dose: 53.0 mg/kg/injection, schedule: Q01DX Z (ip), vehicle: carboxymethylcellulose (CMC)", "result": "87 % of control"},
      {"measurement": "T/C", "setting": "dose: 60.0 mg/kg/injection, schedule: Q01DX001 (ip), vehicle: carboxymethylcellulose (CMC)", "result": "214 % of control"},
      {"measurement": "T/C", "setting": "dose: 60.0 mg/kg/injection, schedule: Q01DX001 (ip), vehicle: other", "result": "192 % of control"},
      {"measurement": "T/C", "setting": "dose: 90.0 mg/kg/injection, schedule: Q01DX001 (ip), vehicle: carboxymethylcellulose (CMC)", "result": "234 % of control"},
      {"measurement": "T/C", "setting": "dose: 90.0 mg/kg/injection, schedule: Q01DX001 (ip), vehicle: other", "result": "236 % of control"},
      {"measurement": "T/C", "setting": "dose: 100.0 mg/kg/injection, schedule: Q01DX Z (oral), vehicle: carboxymethylcellulose (CMC)", "result": "103 % of control"},
      {"measurement": "T/C", "setting": "dose: 200.0 mg/kg/injection, schedule: Q01DX Z (oral), vehicle: carboxymethylcellulose (CMC)", "result": "102 % of control"}
    ]},
    {"smiles": "O=C1C2(c3ccccc3)CC(Cc3ccccc3)C1(c1ccccc1)C(c1ccccc1)=C2c1ccccc1", "note": "(configuration not stated)", "values": [
      {"measurement": "T/C", "setting": "dose: 50.0 mg/kg/injection, schedule: Q01DX001 (ip), vehicle: carboxymethylcellulose (CMC)", "result": "100 % of control"},
      {"measurement": "T/C", "setting": "dose: 100.0 mg/kg/injection, schedule: Q01DX001 (ip), vehicle: carboxymethylcellulose (CMC)", "result": "97 % of control"},
      {"measurement": "T/C", "setting": "dose: 200.0 mg/kg/injection, schedule: Q01DX001 (ip), vehicle: carboxymethylcellulose (CMC)", "result": "111 % of control"},
      {"measurement": "T/C", "setting": "dose: 400.0 mg/kg/injection, schedule: Q01DX001 (ip), vehicle: carboxymethylcellulose (CMC)", "result": "95 % of control"}
    ]},
    {"smiles": "CNc1ccccc1[N+](=O)[O-]", "values": [
      {"measurement": "T/C", "setting": "dose: 100.0 mg/kg/injection, schedule: Q01DX009 (ip), vehicle: Klucel (hydroxypropylcellulose) (HPC)", "result": "100 % of control"},
      {"measurement": "T/C", "setting": "dose: 100.0 mg/kg/injection, schedule: Q01DX009 (ip), vehicle: other", "result": "104 % of control"},
      {"measurement": "T/C", "setting": "dose: 100.0 mg/kg/injection, schedule: Q04DX003 (ip), vehicle: Klucel (hydroxypropylcellulose) (HPC)", "result": "96 % of control"},
      {"measurement": "T/C", "setting": "dose: 100.0 mg/kg/injection, schedule: Q04DX003 (ip), vehicle: other", "result": "107 % of control"},
      {"measurement": "T/C", "setting": "dose: 200.0 mg/kg/injection, schedule: Q01DX009 (ip), vehicle: Klucel (hydroxypropylcellulose) (HPC)", "result": "98 % of control"},
      {"measurement": "T/C", "setting": "dose: 200.0 mg/kg/injection, schedule: Q01DX009 (ip), vehicle: other", "result": "95 % of control"},
      {"measurement": "T/C", "setting": "dose: 200.0 mg/kg/injection, schedule: Q04DX003 (ip), vehicle: Klucel (hydroxypropylcellulose) (HPC)", "result": "95 % of control"},
      {"measurement": "T/C", "setting": "dose: 200.0 mg/kg/injection, schedule: Q04DX003 (ip), vehicle: other", "result": "97 % of control"},
      {"measurement": "T/C", "setting": "dose: 400.0 mg/kg/injection, schedule: Q01DX009 (ip), vehicle: Klucel (hydroxypropylcellulose) (HPC)", "result": "104 % of control"},
      {"measurement": "T/C", "setting": "dose: 400.0 mg/kg/injection, schedule: Q01DX009 (ip), vehicle: other", "result": "95 % of control"},
      {"measurement": "T/C", "setting": "dose: 400.0 mg/kg/injection, schedule: Q04DX003 (ip), vehicle: Klucel (hydroxypropylcellulose) (HPC)", "result": "98 % of control"},
      {"measurement": "T/C", "setting": "dose: 400.0 mg/kg/injection, schedule: Q04DX003 (ip), vehicle: other", "result": "113 % of control"}
    ]}
  ]
}
